Here are results for 18 compounds from patent US20120214846A1, “HEXAHYDROCYCLOPENTYL[F]INDAZOLE PYRIDYL ETHANOLS AND DERIVATIVES THEREOF AS SELECTIVE GLUCOCORTICOID RECEPTOR MODULATORS” (MERCK SHARP & DOHME CORP, priority 2009, published 2012).

pEC50: −log10 of the molar value. Read-outs that look alike come from different tables or passages of the source.

The subject of series [1] is female Sprague-Dawley rats, oxazolone (OX) contact dermatitis. In words: In Vivo Inflammation Assay (oxazolone contact dermatitis model). The arrangement: key to Inflammation Assay Glucose Effect / GL *: +: the glucose level increased compared to vehicle; −: the glucose level decreased compared to vehicle. To be noted: for Inflammation Assay Glucose Effect / Inflammation Assay Anti-inflammatory Effect: rat; for Inflammation Assay Glucose Effect: glucose level compared to vehicle; for Inflammation Assay Anti-inflammatory Effect: relative to control compound; for GL *: Table 4, literature compounds, glucose effect. As to the method:
In Vivo Inflammation Assay
Intact adult (6 month old) female Sprague-Dawley rats are used in the oxazolone (OX) contactdermatitis model. Rats were sensitized on the ventral abdomen with OX on Day 0. On Days 7 and 9, a randomly-selected ear was challenged (same ear each time) with OX; the other was treated with vehicle. Daily treatment begun on Day 7 and continued for 7d with test compounds at different doses and 1.3 mpk 6-methlyprednisolone or 0.1 mpk DEX as positive controls. The thickness of both ears are measured on Days 11 and 14. Necropsy occurred on Day 14. The rat is first weighed, then anesthetized in a CO2 chamber until near death. Approximately 5 ml whole blood is obtained by cardiac puncture. The rat is then examined for certain signs of death and completeness. Tissues are dissected in a highly stylized fashion. Then the following endpoints were evaluated: a) inhibiting ear inflammation induced by oxazalone, b) raising serum insulin, c) reducing serum ACTH, d) reducing spleen weight, e) reducing skin thickness, f) reducing body weight, g) increasing expression of bone-related genes with potential relationship to negative glucocorticoid effects on bone; e) changes in molecular markers that correlate with skin inflammation, skin thinning, muscle atrophy and glucose metabolism in liver. All blood samples were collected between 1330-1530 hours, ˜4-5 hrs after the last compound treatment.
Primary data for this assay are left and right ear thickness. Inter-ear thickness difference (etd) is used for the estimating the level of inflammation and effectiveness of the compounds is determined by their ability to reduce the increase the thickness of the inflamed ear. Back of the rat skin thickness, spleen weight, serum insulin as well as the effects of gcs on the expression of molecular markers in skin inflammation, skin atrophy, muscle atrophy and glucose metabolism in liver are measured. Data are analyzed by anova plus fisher plsd post-hoc test to identify intergroup differences.

Another series has as its target T1, GR (Homo sapiens, UniProt P04150).
T1 sequence (P04150 1-777): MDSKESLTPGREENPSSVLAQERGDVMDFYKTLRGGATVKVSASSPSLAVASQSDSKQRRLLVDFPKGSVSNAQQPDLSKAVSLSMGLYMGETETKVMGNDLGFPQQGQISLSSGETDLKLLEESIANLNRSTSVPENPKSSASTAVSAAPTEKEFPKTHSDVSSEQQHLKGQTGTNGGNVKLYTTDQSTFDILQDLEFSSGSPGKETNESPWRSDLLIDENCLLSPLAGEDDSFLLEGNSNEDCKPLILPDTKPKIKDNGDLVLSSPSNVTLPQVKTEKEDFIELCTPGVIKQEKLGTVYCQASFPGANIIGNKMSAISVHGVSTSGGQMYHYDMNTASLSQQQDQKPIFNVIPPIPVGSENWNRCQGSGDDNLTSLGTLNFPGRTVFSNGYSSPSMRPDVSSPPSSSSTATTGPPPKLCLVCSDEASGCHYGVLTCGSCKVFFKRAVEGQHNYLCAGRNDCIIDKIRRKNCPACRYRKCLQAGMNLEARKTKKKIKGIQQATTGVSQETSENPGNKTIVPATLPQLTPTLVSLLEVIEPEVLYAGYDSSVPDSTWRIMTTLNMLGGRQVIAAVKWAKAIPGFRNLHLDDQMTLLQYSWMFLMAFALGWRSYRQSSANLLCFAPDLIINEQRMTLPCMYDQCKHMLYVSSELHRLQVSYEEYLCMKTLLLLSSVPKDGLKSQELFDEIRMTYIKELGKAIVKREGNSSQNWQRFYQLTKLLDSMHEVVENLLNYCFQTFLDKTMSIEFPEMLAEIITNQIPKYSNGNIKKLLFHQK
The series is described as follows: Transrepression Assay (GITAR), TNFα-β-lactamase reporter, U937 cells. It is filed as cell-based. More on the design: U937 cells contain an endogenous glucocorticoid receptor (GR); endogenous in cells; host or cells: U937 cells stably transfected with the TNF-alpha promoter beta-lactamase reporter. An excerpt:
This assay assesses the ability of test compounds to control transcription from the TNFα-β-lactamase reporter gene in U937 cells, a human myelomonocytic leukemia cell line that naturally expresses the human GR. The assay measures compound dependent-repression of the TNFa promoter linked to a reporter gene.
The human U937 cells that had been stablely transfected with the TNF-α promoter driving […] are used for this assay. U937 cells contain an endogenous glucocorticoid receptor (GR). […] 50,000 cells/well are plated in 96 well black-walled plates the day of assay. Test compounds are added 10 μL/well, and cells are incubated at 37° C. for 30˜45 min. For assaying compounds, first dilute 1:10 in DMSO to make 1 mM, then further dilute 1:100 in medium to make 10× stock prior to adding to the cells. Add 50 ng/ml PMA (Sigma, cat#P8139) 10 μL/well to a final concentration 5 ng/ml, and 1 μg/ml LPS (Sigma, cat#L4130) 10 μL/well to a final concentration 100 ng/ml. Incubate cells at 37° C. overnight for ˜18 hr. PMA is stored frozen as 100 μg/ml stock in DMSO. Dilute 1:10 in DMSO for a working stock of […] and store at −20 C. For assaying, dilute the 10 μg/ml working stock 1:200 in medium to make a 10× solution (50 ng/ml). Store frozen LPS at 1 mg/ml in PBS, dilute 1:1000 in medium to make 10× (1 μg/ml) for the assay. Add 6× loading buffer (CCF2-AM) 20 μL/well, and incubate at room temperature for 70˜90 min. […] The activity repressed by 100 nM dexamethasone alone is set as 100% activity.

The mark [2] stands for this setting: U937 cells, inflection point, read-out: Transrepression U937 Cells GITAR IP.
Setting [3] is: U-937, U937 cells, activity repressed by 100 nM dexamethasone set as 100%, read-out: Transrepression U937 Cells GITAR Emax.
[4] abbreviates: U937 cells, activity repressed by 100 nM dexamethasone set as 100%.
The mark [5] stands for this setting: Table 4, literature compounds, read-out: GITAR IP.
The mark [6] stands for this setting: U-937, Table 4, literature compounds, read-out: GITAR EMAX.

Take `Cc1cccnc1C(O)C[C@]1(O)CCC2=Cc3c(cnn3-c3ccc(F)cc3)C[C@@]21C` (single isomer, unassigned) [Example 1a]: in series [1], the “Inflammation Assay Glucose Effect” value is listed as “−” and the “Inflammation Assay Anti-inflammatory Effect” value was “+ (the anti-inflammatory activity was equal to or greater than 40% of the effect generated by the control compound)”. Also, at GR (setting [2]), the pEC50 is 7.02. The Emax on GR (setting [3]) turned out to be 71.3%.

As for `Cc1cccnc1C(O)C[C@]1(O)CCC2=Cc3c(cnn3-c3ccc(F)cc3)C[C@@]21C` (single isomer, unassigned) [Example 1b], in series [1], the “Inflammation Assay Glucose Effect” value is listed as “+”. Besides, the “Transrepression U937 Cells GITAR Emax” value at GR (setting [4]) was found to be 58.3%. In addition, the pEC50 on GR (setting [2]) is 6.63.

For the compound `C[C@]12Cc3cnn(-c4ccc(F)cc4)c3C=C1CC[C@@]2(O)CC(O)c1ccccn1` (single isomer, unassigned) [Example 2a], in series [1], the “Inflammation Assay Glucose Effect” value is reported as “−” and the “Inflammation Assay Anti-inflammatory Effect” value is listed as “+ (the anti-inflammatory activity was equal to or greater than 40% of the effect generated by the control compound)”. Further, at GR (setting [2]), the pEC50 is 6.63. Further, on GR (setting [3]), the Emax amounted to 63.5%.

`C[C@]12Cc3cnn(-c4ccc(F)cc4)c3C=C1CC[C@@]2(O)CC(O)c1ccccn1` (single isomer, unassigned) [Example 2b]: in series [1], the “Inflammation Assay Glucose Effect” value is recorded as “−” and the “Inflammation Assay Anti-inflammatory Effect” value is on record as “+ (the anti-inflammatory activity was equal to or greater than 40% of the effect generated by the control compound)”. Further, the “Transrepression U937 Cells GITAR Emax” value on GR (setting [4]) turned out to be 68.6%. Further, the pEC50 at GR (setting [2]) is 6.89.

With `C[C@]12Cc3cnn(-c4ccc(F)cc4)c3C=C1CC[C@@]2(O)CC(O)c1cc(C(F)(F)F)ccn1` (single isomer, unassigned) [Example 5a], at GR (setting [2]), the pEC50 was 7.17. Also, the Emax at GR (setting [3]) amounted to 89.1%.

Regarding `C[C@]12Cc3cnn(-c4ccc(F)cc4)c3C=C1CC[C@@]2(O)CC(O)c1cc(C(F)(F)F)ccn1` (single isomer, unassigned) [Example 5b], at GR (setting [4]), the “Transrepression U937 Cells GITAR Emax” value amounted to 75.6%. Further, the pEC50 at GR (setting [2]) was 6.84.

`C[C@]12Cc3cnn(-c4ccc(F)cc4)c3C=C1CC[C@@]2(O)CC(O)c1ccc(F)cn1` (single isomer, unassigned) [Example 7a]: the pEC50 on GR (setting [2]) is 6.36. Besides, the Emax at GR (setting [3]) is 75.2%.

With `C[C@]12Cc3cnn(-c4ccc(F)cc4)c3C=C1CC[C@@]2(O)CC(O)c1ccc(F)cn1` (single isomer, unassigned) [Example 7b], the “Transrepression U937 Cells GITAR Emax” value at GR (setting [4]) was 83.0%. Further, the pEC50 at GR (setting [2]) was 6.60.

As for `C[C@]12Cc3cnn(-c4ccc(F)cc4)c3C=C1CC[C@@]2(O)CC(O)c1cc(Cl)ccn1` (single isomer, unassigned) [Example 8a], in series [1], the “Inflammation Assay Glucose Effect” value is listed as “+” and the “Inflammation Assay Anti-inflammatory Effect” value was “+ (the anti-inflammatory activity was equal to or greater than 40% of the effect generated by the control compound)”. On GR (setting [2]), the pEC50 was 7.01. Also, the Emax on GR (setting [3]) was found to be 77.9%.

Regarding `C[C@]12Cc3cnn(-c4ccc(F)cc4)c3C=C1CC[C@@]2(O)CC(O)c1cc(Cl)ccn1` (single isomer, unassigned) [Example 8b], in series [1], the “Inflammation Assay Glucose Effect” value was “+” and the “Inflammation Assay Anti-inflammatory Effect” value was “+ (the anti-inflammatory activity was equal to or greater than 40% of the effect generated by the control compound)”. Also, the “Transrepression U937 Cells GITAR Emax” value at GR (setting [4]) was 91.1%. On GR (setting [2]), the pEC50 was 7.63.

Turning to `C[C@]12Cc3cnn(-c4ccc(F)cc4)c3C=C1CC[C@@]2(O)CC(O)c1cc(Br)ccn1` (single isomer, unassigned) [Example 10a], on GR (setting [4]), the “Transrepression U937 Cells GITAR Emax” value was 97.5%. For the same compound, the pEC50 at GR (setting [2]) is 6.64.

For the compound `C[C@]12Cc3cnn(-c4ccc(F)cc4)c3C=C1CC[C@@]2(O)CC(O)c1cc(Br)ccn1` (single isomer, unassigned) [Example 10b], the “Transrepression U937 Cells GITAR Emax” value on GR (setting [4]) was 64.3%. For the same compound, the pEC50 at GR (setting [2]) is 7.32.

For `C[C@]12Cc3cnn(-c4ccc(F)cc4)c3C=C1CC[C@@]2(O)C#Cc1ccccc1` [Ex. 1 WO 04/075840 A2, reference compound], the “GL *” value in series [1] was “−”. The pEC50 on GR (setting [5]) was 5.78. Also, the Emax at GR (setting [6]) was found to be 12.8%.

Turning to `C[C@]12Cc3cnn(-c4ccc(F)cc4)c3C=C1CCC[C@@H]2[C@@H](O)Cc1ccccc1` [Ex. 22 WO 03/086294 A2, reference compound], in series [1], the “GL *” value is “−”. In addition, the pEC50 at GR (setting [5]) was 6.62. Further, the Emax at GR (setting [6]) worked out at 76.8%.

As for `C[C@]12Cc3cnn(-c4ccc(F)cc4)c3C=C1CCC[C@@H]2[C@@H](O)CCc1ccccc1` [Ex. 30 WO 03/086294 A2, reference compound], the “GL *” value in series [1] was “−”. On GR (setting [5]), the pEC50 was 6.78. For the same compound, the Emax at GR (setting [6]) was 82.9%.

On to `C[C@]12Cc3cnn(-c4ccc(F)cc4)c3C=C1CCC[C@@H]2[C@@H](O)c1ccccc1` [Ex. 35 WO 03/86294 A2, reference compound], for which the “GL *” value in series [1] is recorded as “−”. In addition, the pEC50 on GR (setting [5]) is 6.70. The Emax on GR (setting [6]) worked out at 78.8%.

On to `C[C@]12Cc3cnn(-c4ccc(F)cc4)c3C=C1CC[C@@]2(O)CC(O)c1ncccc1F` (stereo partly drawn) [Example 4, (4αS,5R)-1-(4-fluorophenyl)-5-[2-(3-fluoropyridin-2-yl)-2-hydroxyethyl]-4α-methyl-1,4,4α,5,6,7-hexahydrocyclopenta[f]indazol-5-ol], for which, at GR (setting [2]), the pEC50 is 6.44. Further, the Emax on GR (setting [3]) stood at 70.6%.

For the compound `C[C@]12Cc3cnn(-c4ccc(F)cc4)c3C=C1CC[C@@]2(O)CC(O)c1ccc(C(F)(F)F)cn1` (stereo partly drawn) [Example 6, (4αS,5R)-1-(4-fluorophenyl)-5-{2-hydroxy-2-[5-(trifluoromethyl)pyridin-2-yl]ethyl}-4α-methyl-1,4,4α,5,6,7-hexahydrocyclopenta[f]indazol-5-ol], the pEC50 at GR (setting [2]) is 6.46. The Emax at GR (setting [3]) was 76.2%.
